Results from article PMC10046369, “Low-Affinity/High-Selectivity Dopamine Transport Inhibition Sufficient to Rescue Cognitive Functions in the Aging Rat” (Biomolecules, 2023).

Key:
Assay in all cases: cell-based
Parameters in all cases: functional GPCR antagonist screen (Eurofins Cerep), percent inhibition of control agonist response
Settings in all cases: antagonist effect, against control agonist; read-out: % Inhibition of Control Agonist Response, Mean
[1] = target: T1, P2Y1 (h) (Homo sapiens, UniProt P47900)
T1 construct: gene P2RY1

[2] = target: T2, S1P2 (h) (Homo sapiens, UniProt O95136)
T2 construct: gene S1PR2

[3] = target: T3, MT1 (ML1A) (h) (Homo sapiens, UniProt P48039)
T3 construct: gene MTNR1A

[4] = target: T4, MC3 (h) (Homo sapiens, UniProt P41968)
T4 construct: gene MC3R

[5] = target: T5, MCH2 (h) (Homo sapiens, UniProt Q969V1)
T5 construct: gene MCHR2

[6] = target: T6, NMU1 (h) (Homo sapiens, UniProt Q9HB89)
T6 construct: gene NMUR1

[7] = target: T7, NMU2 (h) (Homo sapiens, UniProt Q9GZQ4)
T7 construct: gene NMUR2

[8] = target: T8, MC2 (h) (Homo sapiens, UniProt Q01718)
T8 construct: gene MC2R

[9] = target: T9, FP (h) (Homo sapiens, UniProt P43088)
T9 construct: gene PTGFR

[10] = target: T10, NOP (h) (ORL1) (Homo sapiens, UniProt P41146)
T10 construct: gene OPRL1

[11] = target: T11, LPA1(h) (Homo sapiens, UniProt Q92633)
T11 construct: gene LPAR1

[12] = target: T12, PTH1 (h) (Homo sapiens, UniProt Q03431)
T12 construct: gene PTH1R

[13] = target: T13, OX2 (h) (Homo sapiens, UniProt O43614)
T13 construct: gene HCRTR2

[14] = target: T14, EP4 (h) (Homo sapiens, UniProt P35408)
T14 construct: gene PTGER4

[15] = target: T15, S1P1 (h) (Homo sapiens, UniProt P21453)
T15 construct: gene S1PR1

[16] = target: T16, DP1 (h) (Homo sapiens, UniProt Q13258)
T16 construct: gene PTGDR

[17] = target: T17, S1P3 (h) (Homo sapiens, UniProt Q99500)
T17 construct: gene S1PR3

[18] = target: T18, motilin (h) (Homo sapiens, UniProt O43193)
T18 construct: gene MLNR

[19] = target: T19, OX1 (h) (Homo sapiens, UniProt O43613)
T19 construct: gene HCRTR1

[20] = target: T20, MCH1 (h) (Homo sapiens, UniProt Q99705)
T20 construct: gene MCHR1

[21] = target: T21, μ (MOP) (h) (Homo sapiens, UniProt P35372)
T21 construct: gene OPRM1

[22] = target: T22, LPA2 (h) (Homo sapiens, UniProt Q9HBW0)
T22 construct: gene LPAR2

[23] = target: T23, NPBW1 (h) (Homo sapiens, UniProt P48145)
T23 construct: gene NPBWR1

[24] = target: T24, PAR2 (h) (Homo sapiens, UniProt P55085)
T24 construct: gene F2RL1

[25] = target: T25, PAR1 (h) (Homo sapiens, UniProt P25116)
T25 construct: gene F2R

T1 sequence (P47900 whole entry): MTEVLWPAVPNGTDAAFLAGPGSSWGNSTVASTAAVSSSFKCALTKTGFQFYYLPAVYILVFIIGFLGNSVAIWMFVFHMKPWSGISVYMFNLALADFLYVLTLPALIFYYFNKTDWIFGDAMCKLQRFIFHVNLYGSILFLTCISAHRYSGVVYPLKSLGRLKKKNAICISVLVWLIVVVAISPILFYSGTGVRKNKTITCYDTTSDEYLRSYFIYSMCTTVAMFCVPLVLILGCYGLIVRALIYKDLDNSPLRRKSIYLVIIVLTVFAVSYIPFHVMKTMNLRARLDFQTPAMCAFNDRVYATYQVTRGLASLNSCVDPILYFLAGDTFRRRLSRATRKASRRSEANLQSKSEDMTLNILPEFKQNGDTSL
T12 sequence (Q03431 whole entry): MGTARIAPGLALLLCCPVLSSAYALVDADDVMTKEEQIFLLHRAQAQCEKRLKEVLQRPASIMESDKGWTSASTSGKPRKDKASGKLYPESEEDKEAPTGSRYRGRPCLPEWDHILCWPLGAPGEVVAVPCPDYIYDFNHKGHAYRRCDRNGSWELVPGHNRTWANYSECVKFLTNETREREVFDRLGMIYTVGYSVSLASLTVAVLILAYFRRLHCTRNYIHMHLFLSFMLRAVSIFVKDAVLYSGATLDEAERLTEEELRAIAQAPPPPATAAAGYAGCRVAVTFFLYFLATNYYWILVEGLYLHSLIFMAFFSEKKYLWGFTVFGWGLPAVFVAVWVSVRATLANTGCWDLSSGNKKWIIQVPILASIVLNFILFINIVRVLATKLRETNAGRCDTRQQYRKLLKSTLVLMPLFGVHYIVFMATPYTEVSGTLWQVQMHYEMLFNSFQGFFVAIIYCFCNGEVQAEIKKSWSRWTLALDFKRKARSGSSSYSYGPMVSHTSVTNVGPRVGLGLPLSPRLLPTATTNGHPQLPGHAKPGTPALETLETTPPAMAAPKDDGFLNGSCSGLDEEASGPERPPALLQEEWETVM
T18 sequence (O43193 whole entry): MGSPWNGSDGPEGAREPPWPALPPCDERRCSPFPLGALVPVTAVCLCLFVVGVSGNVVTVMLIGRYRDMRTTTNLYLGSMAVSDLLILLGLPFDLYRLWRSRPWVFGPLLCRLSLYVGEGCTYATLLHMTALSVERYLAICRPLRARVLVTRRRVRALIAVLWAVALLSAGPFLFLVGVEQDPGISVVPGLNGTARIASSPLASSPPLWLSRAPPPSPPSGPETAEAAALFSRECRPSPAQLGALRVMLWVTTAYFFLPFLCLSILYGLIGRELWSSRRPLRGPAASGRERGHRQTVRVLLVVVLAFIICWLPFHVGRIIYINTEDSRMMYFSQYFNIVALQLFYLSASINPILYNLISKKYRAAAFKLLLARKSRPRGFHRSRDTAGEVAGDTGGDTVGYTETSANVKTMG
T4 sequence (P41968 whole entry): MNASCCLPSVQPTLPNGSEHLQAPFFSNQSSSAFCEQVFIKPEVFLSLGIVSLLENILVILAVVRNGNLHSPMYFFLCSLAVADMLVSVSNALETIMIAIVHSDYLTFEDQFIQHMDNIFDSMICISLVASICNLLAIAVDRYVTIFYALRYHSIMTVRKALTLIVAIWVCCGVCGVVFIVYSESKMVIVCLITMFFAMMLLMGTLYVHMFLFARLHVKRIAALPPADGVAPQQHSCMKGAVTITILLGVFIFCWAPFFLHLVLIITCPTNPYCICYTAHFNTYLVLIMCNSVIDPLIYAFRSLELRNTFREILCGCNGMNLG
T15 sequence (P21453 whole entry): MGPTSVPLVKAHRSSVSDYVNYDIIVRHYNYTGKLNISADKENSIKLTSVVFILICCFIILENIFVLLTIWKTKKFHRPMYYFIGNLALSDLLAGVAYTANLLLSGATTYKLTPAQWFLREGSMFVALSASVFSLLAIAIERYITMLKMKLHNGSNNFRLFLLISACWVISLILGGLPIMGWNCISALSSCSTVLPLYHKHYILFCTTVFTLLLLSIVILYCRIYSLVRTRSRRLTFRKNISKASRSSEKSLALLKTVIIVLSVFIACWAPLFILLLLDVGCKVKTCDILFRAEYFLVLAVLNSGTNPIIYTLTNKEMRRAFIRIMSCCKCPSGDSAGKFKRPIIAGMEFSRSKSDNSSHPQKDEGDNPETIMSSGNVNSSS
T14 sequence (P35408 whole entry): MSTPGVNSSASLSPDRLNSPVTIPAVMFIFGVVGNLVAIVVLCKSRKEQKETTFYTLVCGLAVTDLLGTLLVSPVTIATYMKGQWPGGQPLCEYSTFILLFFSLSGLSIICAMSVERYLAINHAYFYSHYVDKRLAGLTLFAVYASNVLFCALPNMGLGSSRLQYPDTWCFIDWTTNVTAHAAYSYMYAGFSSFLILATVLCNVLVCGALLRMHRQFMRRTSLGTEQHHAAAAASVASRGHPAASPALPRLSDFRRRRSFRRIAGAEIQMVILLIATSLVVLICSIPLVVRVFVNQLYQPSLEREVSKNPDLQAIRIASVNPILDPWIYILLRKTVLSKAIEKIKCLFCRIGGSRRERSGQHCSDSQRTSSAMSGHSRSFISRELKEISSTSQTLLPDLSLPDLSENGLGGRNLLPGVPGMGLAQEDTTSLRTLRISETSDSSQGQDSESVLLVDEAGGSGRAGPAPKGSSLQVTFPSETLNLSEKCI
T19 sequence (O43613 whole entry): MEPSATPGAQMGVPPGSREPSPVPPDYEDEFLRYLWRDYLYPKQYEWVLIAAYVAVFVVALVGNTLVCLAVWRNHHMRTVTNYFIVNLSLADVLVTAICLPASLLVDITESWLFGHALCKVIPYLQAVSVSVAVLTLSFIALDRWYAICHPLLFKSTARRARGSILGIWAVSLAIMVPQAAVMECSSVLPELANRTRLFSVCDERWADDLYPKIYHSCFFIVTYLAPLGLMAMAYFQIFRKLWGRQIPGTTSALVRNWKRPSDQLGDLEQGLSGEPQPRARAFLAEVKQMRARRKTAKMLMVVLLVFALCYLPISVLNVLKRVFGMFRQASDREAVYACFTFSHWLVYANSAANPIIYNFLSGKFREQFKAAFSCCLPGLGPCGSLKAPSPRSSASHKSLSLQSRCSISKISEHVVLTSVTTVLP
T8 sequence (Q01718 whole entry): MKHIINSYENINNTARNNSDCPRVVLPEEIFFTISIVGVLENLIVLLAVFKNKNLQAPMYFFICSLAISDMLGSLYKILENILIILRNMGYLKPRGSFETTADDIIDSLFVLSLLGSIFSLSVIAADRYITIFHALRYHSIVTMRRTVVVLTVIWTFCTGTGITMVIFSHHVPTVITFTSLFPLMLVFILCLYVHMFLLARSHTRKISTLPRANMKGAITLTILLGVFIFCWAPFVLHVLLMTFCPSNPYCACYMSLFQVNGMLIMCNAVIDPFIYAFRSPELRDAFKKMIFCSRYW
T3 sequence (P48039 whole entry): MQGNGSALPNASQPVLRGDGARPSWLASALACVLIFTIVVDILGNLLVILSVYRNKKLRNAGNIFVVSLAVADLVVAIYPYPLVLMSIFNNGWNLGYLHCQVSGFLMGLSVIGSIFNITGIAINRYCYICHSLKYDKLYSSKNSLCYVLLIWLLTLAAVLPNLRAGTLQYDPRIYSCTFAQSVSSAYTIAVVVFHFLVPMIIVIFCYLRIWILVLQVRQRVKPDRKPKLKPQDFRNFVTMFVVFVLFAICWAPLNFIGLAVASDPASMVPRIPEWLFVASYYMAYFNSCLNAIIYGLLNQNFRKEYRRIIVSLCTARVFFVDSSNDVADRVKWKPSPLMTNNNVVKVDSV
T24 sequence (P55085 whole entry): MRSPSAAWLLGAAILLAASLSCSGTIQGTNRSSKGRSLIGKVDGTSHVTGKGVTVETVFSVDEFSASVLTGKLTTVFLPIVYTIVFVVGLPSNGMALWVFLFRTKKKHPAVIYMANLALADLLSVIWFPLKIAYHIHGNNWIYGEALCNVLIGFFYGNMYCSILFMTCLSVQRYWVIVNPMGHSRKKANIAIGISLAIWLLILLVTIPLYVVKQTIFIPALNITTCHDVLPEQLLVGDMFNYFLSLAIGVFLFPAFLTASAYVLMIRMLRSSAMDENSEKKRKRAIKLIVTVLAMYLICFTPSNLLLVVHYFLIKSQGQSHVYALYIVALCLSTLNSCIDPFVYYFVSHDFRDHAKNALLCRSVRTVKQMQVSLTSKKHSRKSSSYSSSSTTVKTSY
T10 sequence (P41146 whole entry): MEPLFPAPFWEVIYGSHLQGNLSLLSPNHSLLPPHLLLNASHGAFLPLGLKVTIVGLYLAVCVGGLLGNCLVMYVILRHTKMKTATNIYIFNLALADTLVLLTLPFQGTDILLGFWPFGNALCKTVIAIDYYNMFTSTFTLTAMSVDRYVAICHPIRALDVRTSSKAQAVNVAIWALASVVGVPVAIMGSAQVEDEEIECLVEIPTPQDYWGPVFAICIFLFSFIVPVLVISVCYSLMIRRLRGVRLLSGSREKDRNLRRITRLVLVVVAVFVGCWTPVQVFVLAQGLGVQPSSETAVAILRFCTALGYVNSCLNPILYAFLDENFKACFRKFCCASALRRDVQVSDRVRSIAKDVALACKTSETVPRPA
T17 sequence (Q99500 whole entry): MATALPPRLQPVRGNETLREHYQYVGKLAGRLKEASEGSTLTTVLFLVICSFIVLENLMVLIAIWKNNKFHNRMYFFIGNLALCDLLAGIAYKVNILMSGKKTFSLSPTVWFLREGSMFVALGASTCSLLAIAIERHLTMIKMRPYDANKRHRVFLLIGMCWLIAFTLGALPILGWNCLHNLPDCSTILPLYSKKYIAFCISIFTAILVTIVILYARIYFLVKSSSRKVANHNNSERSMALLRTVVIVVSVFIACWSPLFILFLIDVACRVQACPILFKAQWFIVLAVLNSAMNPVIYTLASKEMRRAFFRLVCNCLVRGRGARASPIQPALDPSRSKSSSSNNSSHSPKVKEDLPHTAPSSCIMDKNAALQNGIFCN

**Q.** With [O-][S@@+](Cc1cncs1)C(c1ccccc1)c1ccccc1 [S-CE-123, (S)-5-((Benzhydrylsulfinyl)Methyl)Thiazole] as the compound, how does the inhibition at 2.8 µM [1] read?
**A.** Its inhibition at 2.8 µM is -6.7%.

**Q.** And the inhibition at 2.8 µM [2]?
**A.** The inhibition at 2.8 µM was -5.2%.

**Q.** And the inhibition at 2.8 µM [3]?
**A.** Its inhibition at 2.8 µM is 7.6%.

**Q.** And the inhibition at 2.8 µM [4]?
**A.** Its inhibition at 2.8 µM is -7.8%.

**Q.** What about the inhibition at 2.8 µM [5] of the same compound?
**A.** The inhibition at 2.8 µM was 3.1%.

**Q.** And the inhibition at 2.8 µM [6]?
**A.** The inhibition at 2.8 µM was -21.3%.

**Q.** And the inhibition at 2.8 µM [7]?
**A.** The inhibition at 2.8 µM was -17.7%.

**Q.** What about the inhibition at 2.8 µM [8] of the same compound?
**A.** The inhibition at 2.8 µM was 3.1%.

**Q.** And the inhibition at 2.8 µM [9]?
**A.** Its inhibition at 2.8 µM is 6.7%.

**Q.** What about the inhibition at 2.8 µM [10] of the same compound?
**A.** Its inhibition at 2.8 µM is 18.4%.

**Q.** And the inhibition at 2.8 µM [11]?
**A.** The inhibition at 2.8 µM was 4.4%.

**Q.** What about the inhibition at 2.8 µM [12] of the same compound?
**A.** The inhibition at 2.8 µM was -10.6%.

**Q.** What about the inhibition at 2.8 µM [13] of the same compound?
**A.** The inhibition at 2.8 µM was 4.2%.

**Q.** And the inhibition at 2.8 µM [14]?
**A.** Its inhibition at 2.8 µM is -1.5%.

**Q.** And the inhibition at 2.8 µM [15]?
**A.** The inhibition at 2.8 µM was 5.9%.

**Q.** What about the inhibition at 2.8 µM [16] of the same compound?
**A.** Its inhibition at 2.8 µM is -2.5%.

**Q.** What about the inhibition at 2.8 µM [17] of the same compound?
**A.** Its inhibition at 2.8 µM is 12.2%.

**Q.** What about the inhibition at 2.8 µM [18] of the same compound?
**A.** The inhibition at 2.8 µM was -5.2%.

**Q.** What about the inhibition at 2.8 µM [19] of the same compound?
**A.** The inhibition at 2.8 µM was -14.5%.

**Q.** What about the inhibition at 2.8 µM [20] of the same compound?
**A.** The inhibition at 2.8 µM was -0.9%.

**Q.** What about the inhibition at 2.8 µM [21] of the same compound?
**A.** Its inhibition at 2.8 µM is 5%.

**Q.** And the inhibition at 2.8 µM [22]?
**A.** The inhibition at 2.8 µM was -10.9%.

**Q.** What about the inhibition at 2.8 µM [23] of the same compound?
**A.** Its inhibition at 2.8 µM is -1.9%.

**Q.** What about the inhibition at 2.8 µM [24] of the same compound?
**A.** Its inhibition at 2.8 µM is -19.4%.

**Q.** And the inhibition at 2.8 µM [25]?
**A.** Its inhibition at 2.8 µM is 2.1%.
